Measurements as given in patent US10167279B2 (NOVARTIS AG, priority 2014, dated 2019).
pIC50: −log10 of the molar value.

Tests used:
[1] = biological target: C-Raf FL (Homo sapiens (Human), UniProt P04049, Y340E/Y341E); assay: In vitro Raf activity determination (Alpha Screen, phospho-MEK), C-Raf FL (full length, Y340E/Y341E); format: biochemical; conditions: ATP 1 μM; 60 min pre-incubation; 1 hour reaction; column head does not say FL or TR
Outline: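 Sf9-expressed C-Raf incubated with biotinylated kinase-dead MEK1 (K97R) in 50 mM Tris pH 7.5, 15 mM MgCl2, 0.01% BSA, 1 mM DTT with compound, 60 min at room temperature. Phospho-MEK detected by anti-p-MEK AlphaScreen luminescence; IC50 by non-linear regression.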

[2] = biological target: b-Raf (V600E) (Homo sapiens (Human), UniProt P15056, V600E); assay: In vitro Raf activity determination (Alpha Screen, phospho-MEK), b-Raf (V600E); format: biochemical; conditions: ATP 10 μM, 60 min pre-incubation, 3 hours reaction
Description: The activity of a compound according to the present invention can be assessed by well-known in vitro & in vivo methods. Raf inhibition data provided herein was obtained using the following procedures.
Sf9 cells co-expressing both proteins were lysed and subjected to immobilized nickel chromatography and eluted with Imidazole. A second column (StrepII binding column) was used and eluted with desthiobiotin. Protein Tags were removed using Prescission enzyme and the protein was further purified using a flowthrough step to remove tags.
Full length MEK1 with an inactivating K97R ATP binding site mutation is utilized as a RAF substrate. The MEK1 cDNA was subcloned with an N-terminal (his)6 tag into a vector for E. Coli expression. The MEK1 substrate was purified from E. Coli lysate by nickel affinity chromatography followed by anion exchange. The final MEK1 preparation was biotinylated (Pierce EZ-Link Sulfo-NHS-LC-Biotin) and concentrated.
The plate was incubated for 60 minutes at room temperature. […] The additions were carried out under dark conditions to protect the detection beads from light. A lid was placed on top of the plate and incubated for 1 hour at room temperature, after which the luminescence was read on a PerkinElmer Envision instrument.

Sequence of b-Raf (V600E) (P15056 whole entry V600E): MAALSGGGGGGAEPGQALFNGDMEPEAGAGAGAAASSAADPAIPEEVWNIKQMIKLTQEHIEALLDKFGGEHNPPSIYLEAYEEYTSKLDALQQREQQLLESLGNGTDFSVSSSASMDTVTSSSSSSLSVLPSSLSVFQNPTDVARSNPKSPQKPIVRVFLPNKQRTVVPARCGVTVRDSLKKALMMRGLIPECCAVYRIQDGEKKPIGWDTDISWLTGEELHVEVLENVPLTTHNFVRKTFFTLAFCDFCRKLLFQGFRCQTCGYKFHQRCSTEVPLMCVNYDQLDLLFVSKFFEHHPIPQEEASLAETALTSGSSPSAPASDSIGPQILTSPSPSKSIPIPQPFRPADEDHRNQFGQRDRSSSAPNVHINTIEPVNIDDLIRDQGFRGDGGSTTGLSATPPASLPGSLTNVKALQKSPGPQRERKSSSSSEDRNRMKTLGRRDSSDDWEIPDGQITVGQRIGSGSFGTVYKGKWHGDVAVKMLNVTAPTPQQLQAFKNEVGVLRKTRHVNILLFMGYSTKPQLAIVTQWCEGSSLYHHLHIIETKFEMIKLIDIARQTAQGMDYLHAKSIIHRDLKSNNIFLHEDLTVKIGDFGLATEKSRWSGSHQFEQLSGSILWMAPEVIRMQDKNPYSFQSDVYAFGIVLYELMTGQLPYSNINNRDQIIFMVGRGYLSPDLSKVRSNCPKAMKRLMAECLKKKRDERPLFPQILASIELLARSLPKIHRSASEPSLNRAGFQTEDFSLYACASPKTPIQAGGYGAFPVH
Sequence of C-Raf FL (P04049 whole entry Y340E/Y341E): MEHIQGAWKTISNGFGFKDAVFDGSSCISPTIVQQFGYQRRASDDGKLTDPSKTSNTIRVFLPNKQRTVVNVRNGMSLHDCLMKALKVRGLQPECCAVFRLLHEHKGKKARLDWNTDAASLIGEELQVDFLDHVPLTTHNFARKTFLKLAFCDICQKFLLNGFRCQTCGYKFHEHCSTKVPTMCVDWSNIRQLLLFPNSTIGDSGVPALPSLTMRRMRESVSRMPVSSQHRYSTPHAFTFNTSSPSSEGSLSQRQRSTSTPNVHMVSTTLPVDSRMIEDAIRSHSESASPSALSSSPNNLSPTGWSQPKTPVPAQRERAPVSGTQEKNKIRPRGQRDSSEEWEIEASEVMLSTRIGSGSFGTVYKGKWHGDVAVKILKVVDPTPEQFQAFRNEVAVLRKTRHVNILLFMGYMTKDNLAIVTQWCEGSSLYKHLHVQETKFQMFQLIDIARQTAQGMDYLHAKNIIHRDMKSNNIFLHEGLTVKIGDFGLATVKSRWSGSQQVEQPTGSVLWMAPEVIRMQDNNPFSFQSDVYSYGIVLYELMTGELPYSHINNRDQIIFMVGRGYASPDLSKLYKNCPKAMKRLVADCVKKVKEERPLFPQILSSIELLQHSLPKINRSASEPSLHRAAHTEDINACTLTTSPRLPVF
Sequence of C-Raf FL (P63104 whole entry partner): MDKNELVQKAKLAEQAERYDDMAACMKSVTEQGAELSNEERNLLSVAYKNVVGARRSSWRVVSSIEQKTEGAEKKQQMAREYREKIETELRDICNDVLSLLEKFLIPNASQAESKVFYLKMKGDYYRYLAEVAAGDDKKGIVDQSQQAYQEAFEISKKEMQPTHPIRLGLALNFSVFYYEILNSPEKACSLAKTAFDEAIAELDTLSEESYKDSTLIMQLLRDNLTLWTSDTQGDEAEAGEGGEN

Row | pIC50 [1] | pIC50 [2] | Compound
1 | 8.63 | 7.83 | COc1ncc(-c2cc(NC(=O)c3cc(C(C)(C)C#N)ccn3)cnc2C)cc1C1(F)COC1 [Example 86, 4-(2-cyanopropan-2-yl)-N-(5′-(3-fluorooxetan-3-yl)-6′-methoxy-2-methyl-[3,3′-bipyridin]-5-yl)picolinamide]
2 | 8.66 | 8.00 | CCOc1ncc(-c2cc(NC(=O)c3cc(C(C)(C)N)cc(C(F)(F)F)c3)ccc2C)cc1C1(O)COC1 [Example 120, 3-(2-aminopropan-2-yl)-N-(3-(6-ethoxy-5-(3-hydroxyoxetan-3-yl)pyridin-3-yl)-4-methylphenyl)-5-(trifluoromethyl)benzamide]
3 | 8.80 | 7.89 | Cc1ncc(NC(=O)c2ccnc(C(C)(F)F)c2)cc1-c1cccc(C2COC2)c1 [Example 70, 2-(1,1-difluoroethyl)-N-(6-methyl-5-(3-(oxetan-3-yl)phenyl)pyridin-3-yl)isonicotinamide]
4 | 9.49 | 8.75 | CCOc1ncc(-c2cc(NC(=O)c3ccnc(C(C)(C)F)c3)ccc2C)cc1C1(O)COC1 [Example 122, N-(3-(6-ethoxy-5-(3-hydroxyoxetan-3-yl)pyridin-3-yl)-4-methylphenyl)-2-(2-fluoropropan-2-yl)isonicotinamide]
5 | 8.93 | 8.19 | COc1ncc(-c2cc(NC(=O)c3cc(C(C)(C)C#N)ccn3)ccc2C)cc1C1(O)COC1 [Example 85, 4-(2-cyanopropan-2-yl)-N-(3-(5-(3-hydroxyoxetan-3-yl)-6-methoxypyridin-3-yl)-4-methylphenyl)picolinamide]
6 | 9.41 | 8.44 | COc1ncc(-c2cc(NC(=O)c3cc(C(C)(F)F)ccn3)cnc2C)cc1C1(F)COC1 [Example 90, 4-(1,1-difluoroethyl)-N-(5′-(3-fluorooxetan-3-yl)-6′-methoxy-2-methyl-[3,3′-bipyridin]-5-yl)picolinamide]
7 | 8.49 | 7.63 | COc1ncc(-c2cc(NC(=O)c3cc(C(F)(F)F)ccn3)cnc2C)cc1C1(O)COC1 [Example 78, N-(5′-(3-hydroxyoxetan-3-yl)-6′-methoxy-2-methyl-[3,3′-bipyridin]-5-yl)-4-(trifluoromethyl)picolin-amide]
8 | 9.32 | 8.38 | COc1ncc(-c2cc(NC(=O)c3cc(C(C)(C)O)ccn3)ccc2C)cc1C1(F)COC1 [Example 96, N-(3-(5-(3-fluorooxetan-3-yl)-6-methoxypyridin-3-yl)-4-methylphenyl)-4-(2-hydroxypropan-2-yl)picolinamide]
9 | 9.59 | 8.84 | CCOc1ncc(-c2cc(NC(=O)c3cnnc(C(F)(F)F)c3)cnc2C)cc1C1(C)COC1 [Example 66, N-(6′-ethoxy-2-methyl-5′-(3-methyloxetan-3-yl)-[3,3′-bipyridin]-5-yl)-6-(trifluoromethyl)pyridazine-4-carboxamide]
10 | 9.51 | 8.89 | CCOc1ncc(-c2cc(NC(=O)c3ccnc(C(C)(C)F)c3)cnc2C)cc1C1(CF)COC1 [Example 131, N-(6′-ethoxy-5′-(3-(fluoromethyl)oxetan-3-yl)-2-methyl-[3,3′-bipyridin]-5-yl)-2-(2-fluoropropan-2-yl)isonicotinamide]
11 | 10.07 | 9.53 | COc1ncc(-c2cc(NC(=O)c3ccnc(C(C)(F)F)c3)ccc2C)cc1C1(CF)COC1 [Example 103, 2-(1,1-difluoroethyl)-N-(3-(5-(3-(fluoromethyl)oxetan-3-yl)-6-methoxypyridin-3-yl)-4-methylphenyl)isonicotin-amide]
12 | 9.65 | 8.92 | COc1ncc(-c2cc(NC(=O)c3cc(C(C)(C)N)cc(C(F)(F)F)c3)ccc2C)cc1C1(C(F)F)COC1 [Example 112, 3-(2-aminopropan-2-yl)-N-(3-(5-(3-(difluoromethyl)oxetan-3-yl)-6-methoxypyridin-3-yl)-4-methylphenyl)-5-(trifluoromethyl)benzamide]
13 | 4.60 | 4.60 | COc1cc(-c2cc(NC(=O)c3ccnc(C(C)(C)C#N)c3)ccc2C)cc(C2COC2)c1 [Example 23, 2-(2-cyanopropan-2-yl)-N-(3′-methoxy-6-methyl-5′-(oxetan-3-yl)-[1,1′-biphenyl]-3-yl)isonicotinamide]
14 | 9.43 | 8.64 | CCOc1ncc(-c2cc(NC(=O)c3ccnc(C(F)(F)F)c3)ccc2C)cc1C1(O)COC1 [Example 124, N-(3-(6-ethoxy-5-(3-hydroxyoxetan-3-yl)pyridin-3-yl)-4-methylphenyl)-2-(trifluoromethyl)isonicotin-amide]
15 | 8.82 | 8.00 | Cc1ccc(NC(=O)c2ccnc(C(C)(C)F)c2)cc1-c1cc(C2COC2)c(=O)n(C)c1 [Example 110, 2-(2-fluoropropan-2-yl)-N-(4-methyl-3-(1-methyl-5-(oxetan-3-yl)-6-oxo-1,6-dihydropyridin-3-yl)phenyl)isonicotinamide]
16 | 8.31 | 7.46 | COc1ncc(-c2cc(NC(=O)c3ccnc(C(C)(C)O)c3)cnc2C)cc1C1(F)COC1 [Example 81, N-(5′-(3-fluorooxetan-3-yl)-6′-methoxy-2-methyl-[3,3′-bipyridin]-5-yl)-2-(2-hydroxypropan-2-yl)isonicotinamide]
17 | 8.96 | 7.88 | COc1ncc(-c2cc(NC(=O)c3ccnc(C(F)F)c3)ccc2C)cc1C1(O)COC1 [Example 98, 2-(difluoromethyl)-N-(3-(5-(3-hydroxyoxetan-3-yl)-6-methoxypyridin-3-yl)-4-methylphenyl)isonicotin-amide]
18 | 8.84 | 8.19 | COc1ncc(-c2cc(NC(=O)c3cc(C(C)(C)N)cc(C(F)(F)F)c3)ccc2C)cc1C1(O)COC1 [Example 101, 3-(2-aminopropan-2-yl)-N-(3-(5-(3-hydroxyoxetan-3-yl)-6-methoxypyridin-3-yl)-4-methylphenyl)-5-(trifluoromethyl)benzamide]
19 | 9.31 | 8.40 | COc1ncc(-c2cc(NC(=O)c3ccnc(C(F)(F)F)c3)cnc2C)cc1C1(F)COC1 [Example 79, N-(5′-(3-fluorooxetan-3-yl)-6′-methoxy-2-methyl-[3,3′-bipyridin]-5-yl)-2-(trifluoromethyl)isonicotin-amide]
20 | 4.60 | 4.60 | Cc1ccc(NC(=O)c2ccnc(C(C)(C)C#N)c2)cc1-c1cccc(C2COC2)c1 [Example 28, 2-(2-cyanopropan-2-yl)-N-(6-methyl-3′-(oxetan-3-yl)-[1,1′-biphenyl]-3-yl)isonicotinamide]
21 | 9.34 | 8.45 | Cc1ncc(NC(=O)c2cccc(C(F)(F)F)c2)cc1-c1cccc(C2(C)COC2)c1 [Example 24]
22 | 8.99 | 8.38 | COc1ncc(-c2cc(NC(=O)c3ccnc(C(C)(C)C#N)c3)ccc2C)cc1C1(O)COC1 [Example 72, 2-(2-cyanopropan-2-yl)-N-(3-(5-(3-hydroxyoxetan-3-yl)-6-methoxypyridin-3-yl)-4-methylphenyl)isonicotin-amide]
23 | 10.11 | 9.52 | CCOc1ncc(-c2cc(NC(=O)c3cnnc(C(F)(F)F)c3)ccc2C)cc1C1(C)COC1 [Example 67, N-(3-(6-ethoxy-5-(3-methyloxetan-3-yl)pyridin-3-yl)-4-methylphenyl)-6-(trifluoromethyl)pyridazine-4-carboxamide]
24 | 8.06 | 7.17 | Cc1ncc(NC(=O)c2cccc(C(F)(F)F)c2)cc1-c1cc(C2(F)COC2)c(=O)n(CCCO)c1 [Example 44, N-(5′-(3-fluorooxetan-3-yl)-1′-(3-hydroxypropyl)-2-methyl-6′-oxo-1′,6′-dihydro-[3,3′-bipyridin]-5-yl)-3-(trifluoromethyl)benzamide]
25 | 9.01 | 8.31 | CCOc1ncc(-c2cc(NC(=O)c3ccnc(C(C)(C)C#N)c3)ccc2C)cc1C1(O)COC1 [Example 121, 2-(2-cyanopropan-2-yl)-N-(3-(6-ethoxy-5-(3-hydroxyoxetan-3-yl)pyridin-3-yl)-4-methylphenyl)isonicotin-amide]
26 |  | 7.88 | COc1ncc(-c2cc(NC(=O)c3cc(C(C)(F)F)ccn3)cnc2C)cc1C1(O)COC1 [Example 91]
27 | 9.89 | 9.38 | COc1ncc(-c2cc(NC(=O)c3ccnc(C(C)(C)F)c3)ccc2C)cc1C1(CF)COC1 [Example 104, N-(3-(5-(3-(fluoromethyl)oxetan-3-yl)-6-methoxypyridin-3-yl)-4-methylphenyl)-2-(2-fluoropropan-2-yl)isonicotinamide]
28 | 8.37 | 7.50 | COc1ncc(-c2cc(NC(=O)c3cc(C(C)(C)F)ccn3)cnc2C)cc1C1(O)COC1 [Example 94, 4-(2-fluoropropan-2-yl)-N-(5′-(3-hydroxyoxetan-3-yl)-6′-methoxy-2-methyl-[3,3′-bipyridin]-5-yl)picolinamide]
29 |  | 8.93 | COc1ncc(-c2cc(NC(=O)c3cc(C(C)(F)F)ccn3)ccc2C)cc1C1(F)COC1 [Example 89, 4-(1,1-difluoroethyl)-N-(3-(5-(3-fluorooxetan-3-yl)-6-methoxypyridin-3-yl)-4-methylphenyl)picolinamide]
